pIC50: −log10 of the molar value.
How the values were obtained:
NCI-H1048 = assay: Antiproliferative activity against human NCI-H1048 cells incubated for 72 hrs; assay type: functional, cell-based; settings: NCI-H1048, 72 h
NCI-H209 = assay: Antiproliferative activity against human NCI-H209 cells incubated for 72 hrs; assay type: functional, cell-based; settings: NCI-H209, 72 h
[1] = Antiproliferative activity against human BEAS-2B cells incubated for 72 hrs; assay type: toxicity, cell-based
SHP77 = assay: Antiproliferative activity against human SHP77 cells incubated for 72 hrs; assay type: functional, cell-based; settings: SHP77, 72 h
[2] = Antiproliferative activity against human L02 cells incubated for 72 hrs; assay type: toxicity, cell-based
[3] = Antiproliferative activity against human NCI-H196 cells incubated for 72 hrs; assay type: functional, cell-based; settings: NCI-H196, 72 h
NCI-H446 = assay: Antiproliferative activity against human NCI-H446 cells incubated for 72 hrs; assay type: functional, cell-based; settings: NCI-H446, 72 h
NCI-H146 = assay: Antiproliferative activity against human NCI-H146 cells incubated for 72 hrs; assay type: functional, cell-based; settings: NCI-H146, 72 h
NCI-H82 = assay: Antiproliferative activity against human NCI-H82 cells incubated for 72 hrs; assay type: functional, cell-based; settings: NCI-H82, 72 h

CC1(O)CCN(Cc2cc3c(cc2-c2cc4ccc5c(c4cn2)OCO5)OCO3)C1 (configuration not stated)
pIC50 (NCI-H1048): 4.45 | pIC50 (NCI-H209): 4.14 | IC50 at 72 h [1]: 39.7 µM | pIC50 (SHP77): 4.49 | IC50 at 72 h [2]: > 100 µM | pIC50 [3]: 4.33 | pIC50 (NCI-H446): 4.41 | pIC50 (NCI-H146): 4.70 | pIC50 (NCI-H82): < 4.00

CC(=O)C1CCN(Cc2cc3c(cc2-c2cc4ccc5c(c4cn2)OCO5)OCO3)CC1
pIC50 (NCI-H1048): < 4.00 | pIC50 (NCI-H209): < 4.00 | IC50 at 72 h [1]: > 100 µM | pIC50 (SHP77): 4.03 | IC50 at 72 h [2]: > 100 µM | pIC50 [3]: 4.29 | pIC50 (NCI-H446): 4.31 | pIC50 (NCI-H146): < 4.00 | pIC50 (NCI-H82): < 4.00

c1c(CN2CC3(CCCCC3)C2)c(-c2cc3ccc4c(c3cn2)OCO4)cc2c1OCO2
pIC50 (NCI-H1048): 4.89 | pIC50 (NCI-H209): 4.50 | IC50 at 72 h [1]: 12.6 µM | pIC50 (SHP77): 4.63 | IC50 at 72 h [2]: 41.5 µM | pIC50 [3]: 4.51 | pIC50 (NCI-H446): 4.86 | pIC50 (NCI-H146): 4.81 | pIC50 (NCI-H82): 4.91

CC1(CO)CCN(Cc2cc3c(cc2-c2cc4ccc5c(c4cn2)OCO5)OCO3)CC1
pIC50 (NCI-H1048): 4.53 | pIC50 (NCI-H209): 4.08 | IC50 at 72 h [1]: 21.2 µM | pIC50 (SHP77): 4.65 | IC50 at 72 h [2]: 37.9 µM | pIC50 [3]: 4.39 | pIC50 (NCI-H446): 4.18 | pIC50 (NCI-H146): 4.15 | pIC50 (NCI-H82): 4.24

FC1(F)C2CCN(Cc3cc4c(cc3-c3cc5ccc6c(c5cn3)OCO6)OCO4)CC21 (configuration not stated)
pIC50 (NCI-H1048): 4.67 | pIC50 (NCI-H209): 4.51 | IC50 at 72 h [1]: 10.3 µM | pIC50 (SHP77): 4.80 | IC50 at 72 h [2]: 77.6 µM | pIC50 [3]: 4.56 | pIC50 (NCI-H446): 4.96 | pIC50 (NCI-H146): 4.89 | pIC50 (NCI-H82): 4.35

FC1CCN(Cc2cc3c(cc2-c2cc4ccc5c(c4cn2)OCO5)OCO3)CC1
pIC50 (NCI-H1048): < 4.00 | pIC50 (NCI-H209): < 4.00 | IC50 at 72 h [1]: > 100 µM | pIC50 (SHP77): < 4.00 | IC50 at 72 h [2]: > 100 µM | pIC50 [3]: < 4.00 | pIC50 (NCI-H446): 4.01 | pIC50 (NCI-H146): < 4.00 | pIC50 (NCI-H82): < 4.00

OC1CCCN(Cc2cc3c(cc2-c2cc4ccc5c(c4cn2)OCO5)OCO3)CC1 (configuration not stated)
pIC50 (NCI-H1048): 4.68 | pIC50 (NCI-H209): 4.32 | IC50 at 72 h [1]: 21.1 µM | pIC50 (SHP77): 4.55 | IC50 at 72 h [2]: 37.4 µM | pIC50 [3]: 4.41 | pIC50 (NCI-H446): 4.34 | pIC50 (NCI-H146): 4.51 | pIC50 (NCI-H82): 4.52

CC1(C)CCN(Cc2cc3c(cc2-c2cc4ccc5c(c4cn2)OCO5)OCO3)CC1
pIC50 (NCI-H1048): < 4.00 | pIC50 (NCI-H209): < 4.00 | IC50 at 72 h [1]: > 100 µM | pIC50 (SHP77): < 4.00 | IC50 at 72 h [2]: > 100 µM | pIC50 [3]: < 4.00 | pIC50 (NCI-H446): 4.25 | pIC50 (NCI-H146): < 4.00 | pIC50 (NCI-H82): < 4.00

c1c(CN2CC3CC3C2)c(-c2cc3ccc4c(c3cn2)OCO4)cc2c1OCO2 (configuration not stated)
pIC50 (NCI-H1048): 4.78 | pIC50 (NCI-H209): 4.28 | IC50 at 72 h [1]: 23.7 µM | pIC50 (SHP77): 4.67 | IC50 at 72 h [2]: 26.8 µM | pIC50 [3]: 4.41 | pIC50 (NCI-H446): 4.73 | pIC50 (NCI-H146): < 4.00 | pIC50 (NCI-H82): 4.54

O=C1CCC2CCN(Cc3cc4c(cc3-c3cc5ccc6c(c5cn3)OCO6)OCO4)CN12 (configuration not stated)
pIC50 (NCI-H1048): < 4.00 | pIC50 (NCI-H209): < 4.00 | IC50 at 72 h [1]: > 100 µM | pIC50 (SHP77): 4.44 | IC50 at 72 h [2]: 84.6 µM | pIC50 [3]: 4.11 | pIC50 (NCI-H446): 4.30 | pIC50 (NCI-H146): 4.20 | pIC50 (NCI-H82): 4.14

CC1CCCN(Cc2cc3c(cc2-c2cc4ccc5c(c4cn2)OCO5)OCO3)C1 (configuration not stated)
pIC50 (NCI-H1048): 5.00 | pIC50 (NCI-H209): 4.39 | IC50 at 72 h [1]: 14.3 µM | pIC50 (SHP77): 4.75 | IC50 at 72 h [2]: 43 µM | pIC50 [3]: 4.56 | pIC50 (NCI-H446): 4.64 | pIC50 (NCI-H146): 4.50 | pIC50 (NCI-H82): 4.53

CC(C)(C)C(=O)C1CCN(Cc2cc3c(cc2-c2cc4ccc5c(c4cn2)OCO5)OCO3)CC1
pIC50 (NCI-H1048): < 4.00 | pIC50 (NCI-H209): < 4.00 | IC50 at 72 h [1]: > 100 µM | pIC50 (SHP77): < 4.00 | IC50 at 72 h [2]: > 100 µM | pIC50 [3]: < 4.00 | pIC50 (NCI-H446): 4.61 | pIC50 (NCI-H146): < 4.00 | pIC50 (NCI-H82): < 4.00

c1c(CN2CCCC2)c(-c2cc3ccc4c(c3cn2)OCO4)cc2c1OCO2
pIC50 (NCI-H1048): 4.60 | pIC50 (NCI-H209): 4.09 | IC50 at 72 h [1]: 29 µM | pIC50 (SHP77): 4.54 | IC50 at 72 h [2]: 33.6 µM | pIC50 [3]: 4.46 | pIC50 (NCI-H446): 4.40 | pIC50 (NCI-H146): 4.37 | pIC50 (NCI-H82): 4.22

CN1CCC(C2CCN(Cc3cc4c(cc3-c3cc5ccc6c(c5cn3)OCO6)OCO4)CC2)CC1
pIC50 (NCI-H1048): 4.70 | pIC50 (NCI-H209): 4.57 | IC50 at 72 h [1]: 12.2 µM | pIC50 (SHP77): 4.81 | IC50 at 72 h [2]: > 100 µM | pIC50 [3]: 4.50 | pIC50 (NCI-H446): 4.77 | pIC50 (NCI-H146): 4.93 | pIC50 (NCI-H82): 4.91

ClC1CCN(Cc2cc3c(cc2-c2cc4ccc5c(c4cn2)OCO5)OCO3)CC1
pIC50 (NCI-H1048): < 4.00 | pIC50 (NCI-H209): < 4.00 | IC50 at 72 h [1]: > 100 µM | pIC50 (SHP77): < 4.00 | IC50 at 72 h [2]: > 100 µM | pIC50 [3]: 4.20 | pIC50 (NCI-H446): 4.42 | pIC50 (NCI-H146): < 4.00 | pIC50 (NCI-H82): < 4.00

c1c(CN2CCC(C3CC3)CC2)c(-c2cc3ccc4c(c3cn2)OCO4)cc2c1OCO2
pIC50 (NCI-H1048): < 4.00 | pIC50 (NCI-H209): < 4.00 | IC50 at 72 h [1]: > 100 µM | pIC50 (SHP77): < 4.00 | IC50 at 72 h [2]: 83.6 µM | pIC50 [3]: < 4.00 | pIC50 (NCI-H446): 4.81 | pIC50 (NCI-H146): 4.42 | pIC50 (NCI-H82): < 4.00

c1c(CN2CC3(CCCC3)C2)c(-c2cc3ccc4c(c3cn2)OCO4)cc2c1OCO2
pIC50 (NCI-H1048): 4.70 | pIC50 (NCI-H209): 4.47 | IC50 at 72 h [1]: 14.8 µM | pIC50 (SHP77): 4.51 | IC50 at 72 h [2]: > 100 µM | pIC50 [3]: 4.80 | pIC50 (NCI-H446): 4.73 | pIC50 (NCI-H146): 4.54 | pIC50 (NCI-H82): 4.58

OCCCC1CCN(Cc2cc3c(cc2-c2cc4ccc5c(c4cn2)OCO5)OCO3)CC1
pIC50 (NCI-H1048): 4.61 | pIC50 (NCI-H209): 4.16 | IC50 at 72 h [1]: 24.8 µM | pIC50 (SHP77): 4.58 | IC50 at 72 h [2]: 52.2 µM | pIC50 [3]: 4.55 | pIC50 (NCI-H446): 4.71 | pIC50 (NCI-H146): 4.68 | pIC50 (NCI-H82): 4.39

CC1(C)CCN(Cc2cc3c(cc2-c2cc4ccc5c(c4cn2)OCO5)OCO3)C1
pIC50 (NCI-H1048): 5.14 | pIC50 (NCI-H209): 4.51 | IC50 at 72 h [1]: 17 µM | pIC50 (SHP77): 4.79 | IC50 at 72 h [2]: 24.8 µM | pIC50 [3]: 4.86 | pIC50 (NCI-H446): 4.90 | pIC50 (NCI-H146): 4.85 | pIC50 (NCI-H82): 4.82

c1c(CN2CCCCC2)c(-c2cc3ccc4c(c3cn2)OCO4)cc2c1OCO2
pIC50 (NCI-H1048): 4.85 | pIC50 (NCI-H209): 4.25 | IC50 at 72 h [1]: 21.2 µM | pIC50 (SHP77): 4.52 | IC50 at 72 h [2]: 25.2 µM | pIC50 [3]: 4.47 | pIC50 (NCI-H446): 4.70 | pIC50 (NCI-H146): < 4.00 | pIC50 (NCI-H82): 4.57

CCC1CCCCN1Cc1cc2c(cc1-c1cc3ccc4c(c3cn1)OCO4)OCO2 (configuration not stated)
pIC50 (NCI-H1048): 4.87 | pIC50 (NCI-H209): 4.60 | IC50 at 72 h [1]: 20.7 µM | pIC50 (SHP77): 4.68 | IC50 at 72 h [2]: 22.6 µM | pIC50 [3]: 4.77 | pIC50 (NCI-H446): 4.77 | pIC50 (NCI-H146): 4.48 | pIC50 (NCI-H82): 4.80

CC1CCCCN1Cc1cc2c(cc1-c1cc3ccc4c(c3cn1)OCO4)OCO2 (configuration not stated)
pIC50 (NCI-H1048): 4.78 | pIC50 (NCI-H209): 4.30 | IC50 at 72 h [1]: 19.4 µM | pIC50 (SHP77): 4.39 | IC50 at 72 h [2]: 42.4 µM | pIC50 [3]: 4.43 | pIC50 (NCI-H446): 4.84 | pIC50 (NCI-H146): 4.41 | pIC50 (NCI-H82): 4.41

CCCC1CCN(Cc2cc3c(cc2-c2cc4ccc5c(c4cn2)OCO5)OCO3)CC1
pIC50 (NCI-H1048): < 4.00 | pIC50 (NCI-H209): 4.19 | IC50 at 72 h [1]: > 100 µM | pIC50 (SHP77): 4.55 | IC50 at 72 h [2]: 84.2 µM | pIC50 [3]: 4.99 | pIC50 (NCI-H446): 4.84 | pIC50 (NCI-H146): 4.43 | pIC50 (NCI-H82): < 4.00

From ChEMBL document CHEMBL6153083, “Synthesis, Structural Modification, and Antismall Cell Lung Cancer Activity of 3-Arylisoquinolines with Dual Inhibitory Activity on Topoisomerase I and II” (J Med Chem, 2025)
